# Assays:
# Format in all cases: in vivo
# [1] = test system: Rhipicephalus sanguineus; test: Spot-on efficacy against Rhipicephalus sanguineus ticks on dogs, 40% DES/DMI (Example 5); settings: 4.0 mg/kg
# Method: The efficacy of a formulation comprising an isoxazoline compound (Cmpd. A) in a carrier comprising 40% DES/DMI against Ctenocephalides felis fleas and Rhipicephalus sanguineus ticks in Dogs was studied. […] Three treatment groups containing three dogs each were evaluated. All dogs were treated once topically on Day 0 by parting the hair and applying the solution from a syringe directly onto the skin in a single spot on the midline of the neck between the base of the skull and the shoulder blades.
# Treatment Group 1 was a placebo control and received 0.067 mL/kg of body weight. Treatment Group 2 was administered a topical spot-on formulation comprising 6.0% (w/v) Cmpd. A in 40% DES/DMI to deliver a dose of 4.0 mg/kg body weight. Treatment Group 3 was administered a topical spot-on formulation comprising 12% (w/v) Cmpd. A in 40% DES/DMI to deliver a dose of 4.0 mg/kg body weight.
# [2] = test system: Rhipicephalus (Boophilus) microplus; test: Pour-on tick weight efficacy against Rhipicephalus (Boophilus) microplus in cattle (Example 15)
# Method: (§1) The efficacy of two pour-on formulations of the invention comprising Compound A at doses of 2.5 mg/kg and 10 mg/kg were tested against infestations of Rhipicephalus (Boophilus) microplus ticks compared with an untreated control. Five healthy head of cattle of 6 to 15 months of age weighing between 100 to 200 kg were used in each study group. Cattle in Group 1 were untreated (control). Cattle in Group 2 were treated on Day 0 with a pour-on formulation comprising Compound A at a concentration of 2.5% (w/v) in DES at a dose of 2.5 mg/kg; and cattle in Group 3 were treated on Day 0 with a pour-on formulation comprising Compound A at a concentration of 10% (w/v) in DES at a dose of 10 mg/kg. Several weeks before treatment, cattle are infested three times a week with approximately 2500 Rhipicephalus (Boophilus) microplus larvae to establish ongoing infestations. Cattle in Groups 2 and 3 were treated with the respective compositions on Day 0 by measuring the required amount of the solution into a marked disposable syringe and applying the material evenly along the mid-line of the back of each animal from the withers to the tail head.
# (§2) Each animal was challenged by infestation with approximately 5000 R. microplus larvae on Days 7 and 21 and every 14 days thereafter. Ticks dropping from each animal in the previous 24 hours were collected daily and counted from Day 1 until the end of the study. Since the life cycle of the ticks from the point of infestation with larvae until engorged ticks fall off is approximately 21 days (average), the assessment of efficacy for the challenges on Days 7 and 21 and every 14 days thereafter, was done for a range of 7 or 8 days starting approximately 21 days after the challenge. The assessment of efficacy at the beginning of the study was done from day 1 until Day 21.
# (§3) In addition, the ticks collected were weighed as a group to measure the impact of the treatment on the weight gain of the ticks compared to the control to assess the vitality and reproductive capability of the treated ticks. […] Tables 16A and 16B show the % efficacy of the two pour-on formulations based on the weight of the ticks collected. […] As evidenced from the tables and the figures, the pour-on formulations of the invention at both 2.5 mg/kg and 10 mg/kg provide excellent efficacy against Rhipicephalus (Boophilus) microplus ticks for an extended period of time. […] Furthermore, as shown in Tables 16A and 16B, the two pour-on compositions were extremely effective against ticks based on the weight of the ticks collected. […] The extremely long lasting efficacy above 90% for pour-on composition against Rhipicephalus (Boophilus) microplus ticks is remarkable compared with pour-on formulations known in the art.
# [3] = test system: Rhipicephalus (Boophilus) microplus; test: Pour-on tick count efficacy against Rhipicephalus (Boophilus) microplus in cattle (Example 15)
# Method: as §1, §2, §3
# [4] = Group 2: pour-on 2.5% (w/v) in DES, 2.5 mg/kg, Day 1-21
# [5] = Group 2: pour-on 2.5% (w/v) in DES, 2.5 mg/kg, Day 28-34, Challenge Day 7
# [6] = Group 2: pour-on 2.5% (w/v) in DES, 2.5 mg/kg, Day 41-48, Challenge Day 21
# [7] = Group 2: pour-on 2.5% (w/v) in DES, 2.5 mg/kg, Day 55-62, Challenge Day 35
# [8] = Group 2: pour-on 2.5% (w/v) in DES, 2.5 mg/kg, Day 69-76, Challenge Day 49
# [9] = Group 2: pour-on 2.5% (w/v) in DES, 2.5 mg/kg, Day 83-90, Challenge Day 63
# [10] = Group 2: pour-on 2.5% (w/v) in DES, 2.5 mg/kg, Day 97-104, Challenge Day 77
# [11] = Group 2: pour-on 2.5% (w/v) in DES, 2.5 mg/kg, Day 111-118, Challenge Day 91
# [12] = Group 2: pour-on 2.5% (w/v) in DES, 2.5 mg/kg, Day 132-139, Challenge Day 112
# [13] = Group 2: pour-on 2.5% (w/v) in DES, 2.5 mg/kg, Day 146-153, Challenge Day 126
# [14] = Group 2: pour-on 2.5% (w/v) in DES, 2.5 mg/kg, Day 160-167, Challenge Day 140
# [15] = Group 3: pour-on 10% (w/v) in DES, 10 mg/kg, Day 1-21
# [16] = Group 3: pour-on 10% (w/v) in DES, 10 mg/kg, Day 28-34, Challenge Day 7
# [17] = Group 3: pour-on 10% (w/v) in DES, 10 mg/kg, Day 41-48, Challenge Day 21
# [18] = Group 3: pour-on 10% (w/v) in DES, 10 mg/kg, Day 55-62, Challenge Day 35
# [19] = Group 3: pour-on 10% (w/v) in DES, 10 mg/kg, Day 69-76, Challenge Day 49
# [20] = Group 3: pour-on 10% (w/v) in DES, 10 mg/kg, Day 83-90, Challenge Day 63
# [21] = Group 3: pour-on 10% (w/v) in DES, 10 mg/kg, Day 97-104, Challenge Day 77
# [22] = Group 3: pour-on 10% (w/v) in DES, 10 mg/kg, Day 111-118, Challenge Day 91
# [23] = Group 3: pour-on 10% (w/v) in DES, 10 mg/kg, Day 132-139, Challenge Day 112
# [24] = Group 3: pour-on 10% (w/v) in DES, 10 mg/kg, Day 146-153, Challenge Day 126
# [25] = Group 3: pour-on 10% (w/v) in DES, 10 mg/kg, Day 160-167, Challenge Day 140
structure (smiles),measurement,setting,value
"O=C(CNC(=O)c1ccc(C2=NOC(c3cc(Cl)cc(C(F)(F)F)c3)(C(F)(F)F)C2)c2ccccc12)NCC(F)(F)F (centres unmarked) [Compound A, 4-[5-[3-chloro-5-(trifluoromethyl)phenyl]-4,5-dihydro-5-(trifluoromethyl)-3-isoxazolyl]-N-[2-oxo-2-[(2,2,2-trifluoroethyl)amino]ethyl]-1-naphthalanecarboxamide]",% Reduction,"[1]; Group 2: 6.0% in 40% DES/DMI, Day 2",100.0%
same,% Reduction,"[1]; Group 2: 6.0% in 40% DES/DMI, Day 30",91.5%
same,% Reduction,"[1]; Group 2: 6.0% in 40% DES/DMI, Day 31",100.0%
same,% Reduction,"[1]; Group 2: 6.0% in 40% DES/DMI, Day 38",85.2%
same,% Reduction,"[1]; Group 3: 12% in 40% DES/DMI, Day 2",100.0%
same,% Reduction,"[1]; Group 3: 12% in 40% DES/DMI, Day 30",72.6%
same,% Reduction,"[1]; Group 3: 12% in 40% DES/DMI, Day 31",100.0%
same,% Reduction,"[1]; Group 3: 12% in 40% DES/DMI, Day 38",51.3%
same,Average % Efficacy (Tick Weight),[2]; [4],69.1%
same,Average % Efficacy (Tick Weight),[2]; [5],81.8%
same,Average % Efficacy (Tick Weight),[2]; [6],72.9%
same,Average % Efficacy (Tick Weight),[2]; [7],87.7%
same,Average % Efficacy (Tick Weight),[2]; [8],84.8%
same,Average % Efficacy (Tick Weight),[2]; [9],87.4%
same,Average % Efficacy (Tick Weight),[2]; [10],76.0%
same,Average % Efficacy (Tick Weight),[2]; [11],74.0%
same,Average % Efficacy (Tick Weight),[2]; [12],83.2%
same,Average % Efficacy (Tick Weight),[2]; [13],20.6%
same,Average % Efficacy (Tick Weight),[2]; [14],63.4%
same,Average % Efficacy (Tick Weight),[2]; [15],85.4%
same,Average % Efficacy (Tick Weight),[2]; [16],95.2%
same,Average % Efficacy (Tick Weight),[2]; [17],98.3%
same,Average % Efficacy (Tick Weight),[2]; [18],96.6%
same,Average % Efficacy (Tick Weight),[2]; [19],99.2%
same,Average % Efficacy (Tick Weight),[2]; [20],98.6%
same,Average % Efficacy (Tick Weight),[2]; [21],90.2%
same,Average % Efficacy (Tick Weight),[2]; [22],96.0%
same,Average % Efficacy (Tick Weight),[2]; [23],92.4%
same,Average % Efficacy (Tick Weight),[2]; [24],61.4%
same,Average % Efficacy (Tick Weight),[2]; [25],76.3%
same,Average % Efficacy (Tick Count),[3]; [4],58.8%
same,Average % Efficacy (Tick Count),[3]; [5],75.6%
same,Average % Efficacy (Tick Count),[3]; [6],77.0%
same,Average % Efficacy (Tick Count),[3]; [7],91.2%
same,Average % Efficacy (Tick Count),[3]; [8],88.3%
same,Average % Efficacy (Tick Count),[3]; [9],90.7%
same,Average % Efficacy (Tick Count),[3]; [10],79.8%
same,Average % Efficacy (Tick Count),[3]; [11],79.0%
same,Average % Efficacy (Tick Count),[3]; [12],86.2%
same,Average % Efficacy (Tick Count),[3]; [13],30.3%
same,Average % Efficacy (Tick Count),[3]; [14],74.0%
same,Average % Efficacy (Tick Count),[3]; [15],78.1%
same,Average % Efficacy (Tick Count),[3]; [16],92.0%
same,Average % Efficacy (Tick Count),[3]; [17],98.0%
same,Average % Efficacy (Tick Count),[3]; [18],97.8%
same,Average % Efficacy (Tick Count),[3]; [19],99.3%
same,Average % Efficacy (Tick Count),[3]; [20],98.9%
same,Average % Efficacy (Tick Count),[3]; [21],92.4%
same,Average % Efficacy (Tick Count),[3]; [22],96.6%
same,Average % Efficacy (Tick Count),[3]; [23],92.4%
same,Average % Efficacy (Tick Count),[3]; [24],72.4%
same,Average % Efficacy (Tick Count),[3]; [25],85.8%
same,tick count efficacy,"[3]; pour-on 2.5 mg/kg and 10 mg/kg, for at least day 139",above 90%
